Measured values: US20260345590A1, “COMBINATIONS OF ESTROGEN RECEPTOR DEGRADERS AND AKT INHIBITORS” (Arvinas Operations, Inc., priority 2023, published 2026)
Each block holds one molecule with its values, some of them ahead of it.

Assays:
[1] = tested on: AKT isoforms; conditions: cited from earlier work
[2] = tested on: MCF7 cells; test: Dose-Response Matrix Assay (cell viability, Cell-Titer Glo, Combenefit synergy analysis); format: cell-based; conditions: 8-point curve 100 to 0.046 nM, Day 5
Protocol: Cells were seeded at 2×10^3 cells in 200 μl of media per well in 96 well plates and incubated overnight at 37 °C. […] At Day 5 cell viability was measured using Cell-Titer Glo and CTG data were analyzed with the Combenefit Software (5).

[3] = Biopharmaceutics Classification System classification; format: physicochemical; conditions: BCS Class IV
[4] = molecular target: T1, ER (Homo sapiens, UniProt P03372); test: degradation of the ER
T1 construct: cells or constructs not described in excerpts
T1 sequence (P03372 1-595): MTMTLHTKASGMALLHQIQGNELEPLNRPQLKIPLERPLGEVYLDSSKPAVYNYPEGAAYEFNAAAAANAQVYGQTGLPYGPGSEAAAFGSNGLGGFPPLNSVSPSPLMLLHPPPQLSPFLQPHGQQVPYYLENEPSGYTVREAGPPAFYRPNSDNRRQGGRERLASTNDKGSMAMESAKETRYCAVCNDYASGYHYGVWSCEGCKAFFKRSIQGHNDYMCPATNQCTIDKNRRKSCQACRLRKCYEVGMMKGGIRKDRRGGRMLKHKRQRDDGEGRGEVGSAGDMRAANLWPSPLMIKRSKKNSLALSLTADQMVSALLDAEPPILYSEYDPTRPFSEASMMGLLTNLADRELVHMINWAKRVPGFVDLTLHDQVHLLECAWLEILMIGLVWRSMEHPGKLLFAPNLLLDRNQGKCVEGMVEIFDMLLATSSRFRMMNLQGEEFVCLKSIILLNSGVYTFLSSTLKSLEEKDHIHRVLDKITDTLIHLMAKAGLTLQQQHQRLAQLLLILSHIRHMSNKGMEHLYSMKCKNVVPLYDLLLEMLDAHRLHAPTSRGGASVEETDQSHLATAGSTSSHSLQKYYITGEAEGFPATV

[5] = exposure of epimer Compound C relative to Compound A (preclinical data); format: in vivo

SMILES: NC1(C(=O)N[C@@H](CCO)c2ccc(Cl)cc2)CCN(c2ncnc3[nH]ccc23)CC1 [Capivasertib, 4-amino-N-[(1S)-1-(4-chlorophenyl)-3-hydroxypropyl]-1-(7H-pyrrolo[2,3-d]pyrimidin-4-yl)piperidine-4-carboxamide]
binding to and inhibition of AKT isoforms [1]: binds to and inhibits all AKT isoforms

permeability [3]: low permeability | solubility [3]: low solubility
SMILES: O=C1CC[C@H](N2Cc3cc(N4CCN(CC5CCN(c6ccc([C@@H]7c8ccc(O)cc8CC[C@@H]7c7ccccc7)cc6)CC5)CC4)ccc3C2=O)C(=O)N1 [Compound A, (S)-3-(5-(4-((1-(4-((1R,2S)-6-hydroxy-2-phenyl-1,2,3,4-tetrahydronaphthalen-1-yl)phenyl)piperidin-4-yl)methyl)piperazin-1-yl)-1-oxoisoindolin-2-yl)piperidine-2,6-dione]
synergy on cell viability ([2]; combination with afuresertib): evidence of synergy | synergy on cell viability ([2]; combination with capivasertib): evidence of synergy

degradation of the ER [4]: does not degrade the ER | exposure of Compound C compared to Compound A [5]: < 26%
SMILES: O=C1CC[C@@H](N2Cc3cc(N4CCN(CC5CCN(c6ccc([C@@H]7c8ccc(O)cc8CC[C@@H]7c7ccccc7)cc6)CC5)CC4)ccc3C2=O)C(=O)N1 [Compound C]

SMILES: Cn1ncc(Cl)c1-c1cc(C(=O)N[C@H](CN)Cc2cccc(F)c2)sc1Cl [Afuresertib, N-[(2S)-1-amino-3-(3-fluorophenyl)propan-2-yl]-5-chloro-4-(4-chloro-2-methyl-3-pyrazolyl)-2-thiophenecarboxamide]
mode of AKT kinase inhibition [1]: reversible, ATP-competitive | pan-AKT kinase inhibition potency ([1]; reversible, ATP-competitive): low-nanomolar
